Reference: patent publication US10611740B2, “Aryl dihydro-2H-benzo[b][1,4]oxazine sulfonamide and related compounds for use as agonists of RORγ and the treatment of disease” (Lycera Corporation, priority 2015, dated 2020)

Legend:
Gal4-RORγ-LBD = biological target: T1, Gal4-RORγ-LBD (Homo sapiens, UniProt P51449); test: Gal4-RORγ Luciferase Reporter Assay in HEK-293T Cells; type: cell-based; settings: HEK-293 cells
T1 construct: expressed in transfected cells; host or cells: HEK-293 cells (pcDNA3.1neo plasmid)
T1 sequence (P51449 269-508 limits assumed): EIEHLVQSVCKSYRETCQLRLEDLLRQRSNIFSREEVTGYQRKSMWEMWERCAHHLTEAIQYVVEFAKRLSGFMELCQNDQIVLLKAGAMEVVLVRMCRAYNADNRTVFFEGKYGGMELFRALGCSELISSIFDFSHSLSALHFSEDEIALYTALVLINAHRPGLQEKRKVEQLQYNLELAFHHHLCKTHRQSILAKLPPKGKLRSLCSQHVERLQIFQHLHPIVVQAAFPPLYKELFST
In short: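 Luminescence read-out (One-Glo, 10 min RT) after overnight compound exposure at 37 °C in HEK-293 cells carrying Gal4-RORγ-LBD plus a Gal4-luciferase reporter, in the presence of 2 μM ursolic acid. Max Response is the upper plateau from a 4-parameter logistic fit, normalized to untreated signal = 100.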

RORγ-LBD = biological target: T2, RORγ-LBD (Homo sapiens, UniProt P51449); test: RORγ-Ligand Binding Domain (LBD) TR-FRET Assay; type: biochemical;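 as to TR-FRET Assay Max Response: 665/615 nm ratio relative to signal without ursolic acid or compound set at 100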
T2 construct: made in house; host or cells: SF9 cells (baculovirus)
T2 sequence (P51449 269-508 limits assumed): T1 sequence (P51449 269-508 limits assumed)
In short: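 TR-FRET read-out using a biotin-tagged SRC1 coactivator LXXLL peptide (200 nM final), with the antagonist ursolic acid present at 2 μM final. Receptor is His-tagged LBD expressed in SF9 cells, ~3 nM final in pH 7.0 Tris/KCl/EDTA/DTT/BSA buffer; compounds in 1% DMSO final.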

[1] = luciferase reporter, with 2 μM ursolic acid

| Structure (SMILES) | EC50 (Gal4-RORγ-LBD; [1]) | Gal4-RORγ Assay Max Response (Gal4-RORγ-LBD; [1]) | EC50 (RORγ-LBD) | TR-FRET Assay Max Response (RORγ-LBD) | EC50 (Gal4-RORγ-LBD; 2 μM ursolic acid) | Gal4-RORγ Assay Max Response (Gal4-RORγ-LBD; 2 μM ursolic acid) |
| --- | --- | --- | --- | --- | --- | --- |
| COc1c(F)cc(F)cc1-c1ccc2c(c1)N(S(=O)(=O)c1cccc(C(F)(F)F)c1)C[C@H](CCC(=O)O)O2 [Compound 2BC, (S)-3-(6-(3,5-difluoro-2-methoxyphenyl)-4-((3-(trifluoromethyl)phenyl)-sulfonyl)-3,4-dihydro-2H-benzo[b][1,4]oxazin-2-yl)propanoic acid] | < 500 nM | *** (The symbol “***” indicates a value in the range of greater than 150 to 200) | < 500 nM | **** (The symbol “****” indicates a value greater than 200) |  |  |
| CCc1ccccc1-c1ccc2c(c1)N(S(=O)(=O)c1cccc(C(F)(F)F)c1)C[C@H](CCC(=O)O)O2 [Compound 2BD, (S)-3-(6-(2-ethylphenyl)-4-((3-(trifluoromethyl)phenyl)sulfonyl)-3,4-dihydro-2H-benzo[b][1,4]oxazin-2-yl)propanoic acid] | < 500 nM | ** (The symbol “**” indicates a value in the range of greater than 90 to 150) | < 500 nM | **** (The symbol “****” indicates a value greater than 200) |  |  |
| O=C(O)CC[C@H]1CN(S(=O)(=O)c2cccc(C(F)(F)F)c2)c2cc(-c3cccnc3Cl)ccc2O1 [Compound 2BE, (S)-3-(6-(2-chloropyridin-3-yl)-4-((3-(trifluoromethyl)phenyl)-sulfonyl)-3,4-dihydro-2H-benzo[b][1,4]oxazin-2-yl)propanoic acid] | 500 to 5000 nM | ** (The symbol “**” indicates a value in the range of greater than 90 to 150) | < 500 nM | **** (The symbol “****” indicates a value greater than 200) |  |  |
| COc1ncccc1-c1ccc2c(c1)N(S(=O)(=O)c1cccc(C(F)(F)F)c1)C[C@H](CCC(=O)O)O2 [Compound 2BG, (S)-3-(6-(2-methoxypyridin-3-yl)-4-((3-(trifluoromethyl)-phenyl)sulfonyl)-3,4-dihydro-2H-benzo[b][1,4]oxazin-2-yl)propanoic acid] | 500 to 5000 nM | ** (The symbol “**” indicates a value in the range of greater than 90 to 150) | < 500 nM | *** (The symbol “***” indicates a value in the range of greater than 150 to 200) |  |  |
| CC(C)Cn1cc(-c2ccc3c(c2)N(S(=O)(=O)c2cccc(C(F)(F)F)c2)C[C@H](CCC(=O)O)O3)cn1 [Compound 2BH, (S)-3-(6-(1-isobutyl-1H-pyrazol-4-yl)-4-((3-(trifluoromethyl)-phenyl)sulfonyl)-3,4-dihydro-2H-benzo[b][1,4]oxazin-2-yl)propanoic acid] | > 10000 nM |  | 500 to 5000 nM | ** (The symbol “**” indicates a value in the range of greater than 90 to 150) |  |  |
| CS(=O)(=O)c1ccccc1-c1ccc2c(c1)N(S(=O)(=O)c1cccc(C(F)(F)F)c1)C[C@H](CCC(=O)O)O2 [Compound 2BI, (S)-3-(6-(2-(methylsulfonyl)-phenyl)-4-((3-(trifluoromethyl)-phenyl)sulfonyl)-3,4-dihydro-2H-benzo[b][1,4]oxazin-2-yl)propanoic acid] | 500 to 5000 nM | ** (The symbol “**” indicates a value in the range of greater than 90 to 150) | 500 to 5000 nM | *** (The symbol “***” indicates a value in the range of greater than 150 to 200) |  |  |
| COc1cccc(C#N)c1-c1ccc2c(c1)N(S(=O)(=O)c1cccc(C(F)(F)F)c1)C[C@H](CCC(=O)O)O2 [Compound 2BJ, (S)-3-(6-(2-cyano-6-methoxy-phenyl)-4-((3-(trifluoromethyl)-phenyl)sulfonyl)-3,4-dihydro-2H-benzo[b][1,4]oxazin-2-yl)propanoic acid] | > 10000 nM | ** (The symbol “**” indicates a value in the range of greater than 90 to 150) | > 10000 nM |  |  |  |
| Cc1ccc(Cl)c(-c2ccc3c(c2)N(S(=O)(=O)c2cccc(C(F)(F)F)c2)C[C@H](CCC(=O)O)O3)c1 [Compound 2BK, (S)-3-(6-(2-chloro-5-methyl-phenyl)-4-((3-(trifluoromethyl)-phenyl)sulfonyl)-3,4-dihydro-2H-benzo[b][1,4]oxazin-2-yl)propanoic acid] | < 500 nM | ** (The symbol “**” indicates a value in the range of greater than 90 to 150) | < 500 nM | *** (The symbol “***” indicates a value in the range of greater than 150 to 200) |  |  |
| Cc1ccc(F)c(-c2ccc3c(c2)N(S(=O)(=O)c2cccc(C(F)(F)F)c2)C[C@H](CCC(=O)O)O3)c1 [Compound 2BL, (S)-3-(6-(2-fluoro-5-methyl-phenyl)-4-((3-(trifluoromethyl)-phenyl)sulfonyl)-3,4-dihydro-2H-benzo[b][1,4]oxazin-2-yl)propanoic acid] | < 500 nM | ** (The symbol “**” indicates a value in the range of greater than 90 to 150) | < 500 nM | *** (The symbol “***” indicates a value in the range of greater than 150 to 200) |  |  |
| O=C(O)CC[C@H]1CN(S(=O)(=O)c2cccc(C(F)(F)F)c2)c2cc(-c3ccccc3C(F)(F)F)ccc2O1 [Compound 2BM, (S)-3-(6-(2-(trifluoromethyl)-phenyl)-4-((3-(trifluoromethyl)-phenyl)sulfonyl)-3,4-dihydro-2H-benzo[b][1,4]oxazin-2-yl)propanoic acid] | 500 to 5000 nM | ** (The symbol “**” indicates a value in the range of greater than 90 to 150) | < 500 nM | *** (The symbol “***” indicates a value in the range of greater than 150 to 200) |  |  |
| Cc1cc(F)cc(-c2ccc3c(c2)N(S(=O)(=O)c2cccc(C(F)(F)F)c2)C[C@H](CCC(=O)O)O3)c1 [Compound 2BN, (S)-3-(6-(3-fluoro-5-methyl-phenyl)-4-((3-(trifluoromethyl)-phenyl)sulfonyl)-3,4-dihydro-2H-benzo[b][1,4]oxazin-2-yl)propanoic acid] | < 500 nM | ** (The symbol “**” indicates a value in the range of greater than 90 to 150) | < 500 nM | *** (The symbol “***” indicates a value in the range of greater than 150 to 200) |  |  |
| Cc1noc(C)c1-c1ccc2c(c1)N(S(=O)(=O)c1cccc(C(F)(F)F)c1)C[C@H](CCC(=O)O)O2 [Compound 2BO, (S)-3-(6-(3,5-dimethylisoxazol-4-yl)-4-((3-(trifluoromethyl)-phenyl)sulfonyl)-3,4-dihydro-2H-benzo[b][1,4]oxazin-2-yl)propanoic acid] | > 10000 nM |  | > 10000 nM |  |  |  |
| Cc1cccc(-c2ccc3c(c2)N(S(=O)(=O)c2cccc(C(F)(F)F)c2)C[C@H](CCC(=O)O)O3)c1C [Compound 2BR, (S)-3-(6-(2,3-dimethylphenyl)-4-((3-(trifluoromethyl)phenyl)-sulfonyl)-3,4-dihydro-2H-benzo[b][1,4]oxazin-2-yl)propanoic acid] |  |  | < 500 nM | *** (The symbol “***” indicates a value in the range of greater than 150 to 200) | < 500 nM | ** (The symbol “**” indicates a value in the range of greater than 90 to 150) |
| O=C(O)CC[C@H]1CN(S(=O)(=O)c2cccc(C(F)(F)F)c2)c2cc(-c3cc(Cl)ccc3F)ccc2O1 [Compound 2C, (S)-3-(6-(5-chloro-2-fluorophenyl)-4-((3-(trifluoromethyl)phenyl)-sulfonyl)-3,4-dihydro-2H-benzo[b][1,4]oxazin-2-yl)propanoic acid] | < 500 nM | ** (The symbol “**” indicates a value in the range of greater than 90 to 150) | < 500 nM | *** (The symbol “***” indicates a value in the range of greater than 150 to 200) |  |  |
| O=C(O)CC[C@H]1CN(S(=O)(=O)c2cccc(C(F)(F)F)c2)c2cc(-c3ccc(Cl)c(Cl)c3)ccc2O1 [Compound 2E, (S)-3-(6-(3,4-dichlorophenyl)-4-((3-(trifluoromethyl)phenyl)-sulfonyl)-3,4-dihydro-2H-benzo[b][1,4]oxazin-2-yl)propanoic acid] | < 500 nM | ** (The symbol “**” indicates a value in the range of greater than 90 to 150) | < 500 nM | *** (The symbol “***” indicates a value in the range of greater than 150 to 200) |  |  |
| O=C(O)CC[C@H]1CN(S(=O)(=O)c2cccc(C(F)(F)F)c2)c2cc(-c3cccc(C(F)(F)F)c3)ccc2O1 [Compound 2G, (S)-3-(6-(3-(trifluoromethyl)phenyl)-4-((3-(trifluoromethyl)phenyl)-sulfonyl)-3,4-dihydro-2H-benzo[b][1,4]oxazin-2-yl)propanoic acid] | < 500 nM | *** (The symbol “***” indicates a value in the range of greater than 150 to 200) | < 500 nM | *** (The symbol “***” indicates a value in the range of greater than 150 to 200) |  |  |
